Test results from paper PMC4348537, “Discovery of Novel New Delhi Metallo-β-Lactamases-1 Inhibitors by Multistep Virtual Screening” (PLoS ONE, 2015).

What was measured:
[1] = molecular target: T1, NDM-1 (New Delhi metallo-β-lactamase-1) (Klebsiella pneumoniae, UniProt C7C422); experiment: nitrocefin hydrolysis assay with purified enzyme, dose-response; similar with […] Triton X-100; assay type: biochemical
T1 construct: gene blaNDM-1

[2] = molecular target: T1, NDM-1 (New Delhi metallo-β-lactamase-1); experiment: steady-state hydrolysis kinetics at […] nm, Km by Lineweaver-Burk plot; assay type: biochemical

T1 sequence (C7C422 29-270 limits assumed): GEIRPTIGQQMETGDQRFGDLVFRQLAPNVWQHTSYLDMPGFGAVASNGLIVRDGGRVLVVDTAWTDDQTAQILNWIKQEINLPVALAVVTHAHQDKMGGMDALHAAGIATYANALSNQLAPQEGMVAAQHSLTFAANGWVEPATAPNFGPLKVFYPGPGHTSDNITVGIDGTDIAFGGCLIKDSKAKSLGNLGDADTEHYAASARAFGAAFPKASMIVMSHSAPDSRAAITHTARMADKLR

Compound `Cc1cc(C)c(NC(=O)CSc2ncc3c(n2)-c2ccc(Cl)cc2N(C)S3(=O)=O)c(C)c1` [VNI-24] has an IC50 [1] of 37.6 ± 0.9 µM.
Work on `CCOc1ccc(S(=O)(=O)N2CCN(c3cc(Nc4ccc(C)cc4)nc(C)n3)CC2)cc1` [VNI-34] yielded an IC50 [1] of 31.4 ± 1.2 µM.
`O=C(Nc1cccc2ccccc12)C1CCN(S(=O)(=O)c2cccc3nonc23)CC1` [VNI-41] showed an IC50 [1] of 29.6 ± 1.3 µM.
For `O=C(Cc1cccs1)N[C@@H]1C(=O)N2C(C(=O)O)=C(/C=C/c3ccc([N+](=O)[O-])cc3[N+](=O)[O-])CS[C@H]12` [nitrocefin], the Km [2] was 9.54 ± 0.43 µM.
